Data reported in ChEMBL document CHEMBL4823249, “Discovery of a Pyrimidinedione Derivative as a Potent and Orally Bioavailable Axl Inhibitor” (J Med Chem, 2021).
Activity calls are given as the source filed them. The calls are words filed in the database; no cut-off is given here.

Columns and labels:
[1] = molecular target: Platelet-derived growth factor receptor beta (Homo sapiens, UniProt P09619); assay: Inhibition of human PDGFRbeta (557 to end residues) using poly(Glu, Tyr) 4:1 as substrate measured after 40 mins in presence of [gamma33P]ATP by scintillation counting based radiometry assay
[2] = molecular target: T1, Tyrosine-protein kinase receptor UFO (Mus musculus) (UniProt Q00993); assay: Inhibition of AXL in mouse BaF3/TEL-AXL cells assessed as reduction in Gas6-induced phosphorylation of AKT at 0.5 to 50 nM preincubated for 2 hrs followed by Gas6 stimulation for 15 mins by Western blotting analysis; type: cell-based; settings: dose 0.5-50 nM
T1 sequence (whole entry): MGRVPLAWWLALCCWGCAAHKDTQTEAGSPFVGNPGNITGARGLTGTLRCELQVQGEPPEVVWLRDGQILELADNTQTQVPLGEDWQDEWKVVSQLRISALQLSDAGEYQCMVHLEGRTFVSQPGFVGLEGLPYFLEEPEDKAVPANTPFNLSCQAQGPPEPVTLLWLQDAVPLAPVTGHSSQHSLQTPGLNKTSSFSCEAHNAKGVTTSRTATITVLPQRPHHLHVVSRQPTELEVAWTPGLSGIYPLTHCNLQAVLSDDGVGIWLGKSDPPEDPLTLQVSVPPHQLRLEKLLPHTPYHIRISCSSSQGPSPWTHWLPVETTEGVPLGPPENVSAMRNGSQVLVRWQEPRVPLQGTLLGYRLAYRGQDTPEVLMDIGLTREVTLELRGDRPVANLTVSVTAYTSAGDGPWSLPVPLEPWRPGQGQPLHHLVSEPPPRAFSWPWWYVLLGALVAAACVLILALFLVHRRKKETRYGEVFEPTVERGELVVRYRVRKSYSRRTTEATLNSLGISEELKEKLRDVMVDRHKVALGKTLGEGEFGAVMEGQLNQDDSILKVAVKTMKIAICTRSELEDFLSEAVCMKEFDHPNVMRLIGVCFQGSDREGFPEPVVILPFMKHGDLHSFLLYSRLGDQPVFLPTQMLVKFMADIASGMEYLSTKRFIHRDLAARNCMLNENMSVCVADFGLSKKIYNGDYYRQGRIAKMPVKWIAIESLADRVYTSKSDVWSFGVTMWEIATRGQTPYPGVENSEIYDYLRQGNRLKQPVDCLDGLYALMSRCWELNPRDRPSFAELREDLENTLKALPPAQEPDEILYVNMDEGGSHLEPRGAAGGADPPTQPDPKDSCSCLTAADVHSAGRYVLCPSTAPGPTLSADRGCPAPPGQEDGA

U-87 MG = assay: Antitumor activity against human U-87MG cells xenografted in BALB/c nude mouse assessed as tumor growth inhibition at 5 mg/kg, po administered once daily for 14 days by caliper method; type: functional, U-87MG ATCC; settings: 336 h, time 14 day, read-out: TGI
[3] = molecular target: T1, Tyrosine-protein kinase receptor UFO (Mus musculus); assay: Inhibition of AXL in mouse BaF3/TEL-AXL cells assessed as reduction in phosphorylation of AXL at 1 to 15 nM after 2 hrs by Western blotting analysis; type: cell-based; settings: dose 1-15 nM
Focal adhesion kinase 1 = Focal adhesion kinase 1 (Homo sapiens, UniProt Q05397); assay: Inhibition of human recombinant FAK1 (411 to 686 residues) using EEEEYEEEEEEYY as substrate incubated for 40 mins in presence of [gamma-33ATP] by radiometric scintillation counting analysis
HT-29 = assay: Antiproliferative activity against human HT-29 cells incubated for 72 hrs by SRB or CCK8 assay; type: functional, cell-based; settings: HT-29, 72 h
CDK2/Cyclin A2 = CDK2/Cyclin A2 (Homo sapiens, UniProt P24941); assay: Inhibition of full length human recombinant CDK2/Cyclin A using histone H1 as substrate incubated for 40 mins in presence of [gamma-33ATP] by radiometric scintillation counting analysis; type: protein-complex assay
[4] = molecular target: Epidermal growth factor receptor (Homo sapiens, UniProt P00533); assay: Inhibition of recombinant human EGFR (696 to end residues) using poly(Glu, Tyr) 4:1 as substrate incubated for 40 mins in presence of [gamma-33ATP] by scintillation counting based radiometry assay
[5] = molecular target: Fibroblast growth factor receptor 1 (Homo sapiens, UniProt P11362); assay: Inhibition of recombinant human FGFR1 (456 to 765 residues) using KKKSPGEYVNIEF as substrate incubated for 40 mins in presence of [gamma-33ATP] by radiometric scintillation counting analysis
[6] = molecular target: PI3-kinase p110-delta/p85-alpha (Homo sapiens, UniProt O00329); assay: Inhibition of recombinant human full length PI3K p110delta/p85a using phosphatidylinositol-4, 5-bisphosphate as substrate incubated for 40 mins in presence of [gamma33P]ATP by scintillation counting based radiometry assay; type: protein-complex assay
[7] = molecular target: Vascular endothelial growth factor receptor 2 (Homo sapiens, UniProt P35968); assay: Inhibition of recombinant human KDR (790 to end residues) using myelin basic protein as substrate incubated for 40 mins by [gamma-33P]-ATP scintillation counting based radiometry assay
CDK4/Cyclin D3 = CDK4/Cyclin D3 (Homo sapiens, UniProt P11802); assay: Inhibition of recombinant full length human CDK4/CyclinD3 using Rb fragment as substrate incubated for 40 mins in presence of [gamma-33ATP] by scintillation counting based radiometry assay; type: protein-complex assay
[8] = molecular target: Tyrosine-protein kinase JAK1 (Homo sapiens, UniProt P23458); assay: Inhibition of human JAK1 (866 to end residues) using GEEPLYWSFPAKKK as substrate after 40 mins in presence of [gamma-33ATP] by scintillation counting based radiometry assay
MDA-MB-231 = assay: Antiproliferative activity against human MDA-MB-231 cells incubated for 72 hrs by SRB or CCK8 assay; type: functional, cell-based; settings: MDA-MB-231, 72 h
EBC-1 = assay: Antiproliferative activity against human EBC-1 cells incubated for 72 hrs by SRB or CCK8 assay; type: functional, cell-based; settings: EBC-1, 72 h
[9] = molecular target: Hepatocyte growth factor receptor (Homo sapiens, UniProt P08581); assay: Inhibition of MET signaling in human EBC1 cells assessed as reduction in phosphorylation of MET after 2 hrs by Western blotting analysis; type: cell-based; settings: EBC-1, dose 10-100 nM
[10] = Half life in ICR mouse at 3 mg/kg, po measured upto 24 hrs by LC-MS analysis; type: ADME, organism-based; settings: in vivo
[11] = molecular target: Mast/stem cell growth factor receptor Kit (Homo sapiens, UniProt P10721); assay: Inhibition of recombinant human C-Kit using poly(Glu, Tyr) 4:1 as substrate incubated for 40 mins in presence of [gamma-33ATP] by scintillation counting based radiometry assay
[12] = Half life in Sprague-Dawley rat at 3 mg/kg, po measured upto 24 hrs by LC-MS analysis; type: ADME, organism-based; settings: in vivo
BaF3 = assay: Antitumor activity against mouse BaF3/TEL-AXL cells xenografted in BALB/c nude mouse assessed as tumor growth inhibition at 1 mg/kg, po administered once daily for 14 days by caliper method; type: functional; settings: 336 h, time 14 day, read-out: TGI
[13] = AUC(0 to t) in ICR mouse at 3 mg/kg, po measured upto 24 hrs by LC-MS analysis; type: ADME, organism-based; set-up: route oral, dose 3 mg/kg, time <=24; settings: in vivo
[14] = Inhibition of recombinant human PKA using Kemptide as substrate measured after 40 mins in presence of [gamma33P]ATP by scintillation counting based radiometry assay

Vascular endothelial growth factor receptor 2, sequence (P35968 whole entry, the tested form may be a part): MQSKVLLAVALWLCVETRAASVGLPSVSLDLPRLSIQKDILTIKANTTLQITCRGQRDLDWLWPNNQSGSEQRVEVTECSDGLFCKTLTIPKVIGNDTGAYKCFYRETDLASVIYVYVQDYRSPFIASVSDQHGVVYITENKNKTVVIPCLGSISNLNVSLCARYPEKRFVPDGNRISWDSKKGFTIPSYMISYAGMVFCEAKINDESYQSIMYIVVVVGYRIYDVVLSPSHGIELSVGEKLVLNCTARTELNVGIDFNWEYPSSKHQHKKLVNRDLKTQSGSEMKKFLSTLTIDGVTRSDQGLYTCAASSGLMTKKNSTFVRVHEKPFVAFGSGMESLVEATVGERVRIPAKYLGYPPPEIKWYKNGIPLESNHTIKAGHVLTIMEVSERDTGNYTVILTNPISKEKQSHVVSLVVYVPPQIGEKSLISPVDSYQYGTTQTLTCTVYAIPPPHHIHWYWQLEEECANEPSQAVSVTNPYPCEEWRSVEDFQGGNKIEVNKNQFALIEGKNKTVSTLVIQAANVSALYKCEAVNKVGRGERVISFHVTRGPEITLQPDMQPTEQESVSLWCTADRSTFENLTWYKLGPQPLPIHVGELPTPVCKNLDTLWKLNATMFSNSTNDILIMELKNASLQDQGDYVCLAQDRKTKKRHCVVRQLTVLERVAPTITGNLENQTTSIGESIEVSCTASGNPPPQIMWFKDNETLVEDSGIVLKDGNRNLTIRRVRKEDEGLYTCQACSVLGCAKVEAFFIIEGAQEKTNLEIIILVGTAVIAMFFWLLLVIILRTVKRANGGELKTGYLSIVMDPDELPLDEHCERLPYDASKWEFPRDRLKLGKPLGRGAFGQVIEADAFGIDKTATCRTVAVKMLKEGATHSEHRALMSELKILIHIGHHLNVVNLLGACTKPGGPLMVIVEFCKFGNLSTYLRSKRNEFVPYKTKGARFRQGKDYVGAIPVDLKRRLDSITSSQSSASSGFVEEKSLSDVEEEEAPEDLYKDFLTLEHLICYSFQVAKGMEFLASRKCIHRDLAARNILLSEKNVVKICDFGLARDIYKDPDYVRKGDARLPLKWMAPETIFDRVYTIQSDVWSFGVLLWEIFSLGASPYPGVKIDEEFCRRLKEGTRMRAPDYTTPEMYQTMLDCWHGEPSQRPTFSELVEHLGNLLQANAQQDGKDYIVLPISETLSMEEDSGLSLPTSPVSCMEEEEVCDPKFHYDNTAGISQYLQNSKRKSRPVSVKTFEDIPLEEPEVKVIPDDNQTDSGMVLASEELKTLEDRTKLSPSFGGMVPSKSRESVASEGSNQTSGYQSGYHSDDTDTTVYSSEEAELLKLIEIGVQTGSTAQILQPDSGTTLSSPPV
Platelet-derived growth factor receptor beta, sequence (P09619 whole entry): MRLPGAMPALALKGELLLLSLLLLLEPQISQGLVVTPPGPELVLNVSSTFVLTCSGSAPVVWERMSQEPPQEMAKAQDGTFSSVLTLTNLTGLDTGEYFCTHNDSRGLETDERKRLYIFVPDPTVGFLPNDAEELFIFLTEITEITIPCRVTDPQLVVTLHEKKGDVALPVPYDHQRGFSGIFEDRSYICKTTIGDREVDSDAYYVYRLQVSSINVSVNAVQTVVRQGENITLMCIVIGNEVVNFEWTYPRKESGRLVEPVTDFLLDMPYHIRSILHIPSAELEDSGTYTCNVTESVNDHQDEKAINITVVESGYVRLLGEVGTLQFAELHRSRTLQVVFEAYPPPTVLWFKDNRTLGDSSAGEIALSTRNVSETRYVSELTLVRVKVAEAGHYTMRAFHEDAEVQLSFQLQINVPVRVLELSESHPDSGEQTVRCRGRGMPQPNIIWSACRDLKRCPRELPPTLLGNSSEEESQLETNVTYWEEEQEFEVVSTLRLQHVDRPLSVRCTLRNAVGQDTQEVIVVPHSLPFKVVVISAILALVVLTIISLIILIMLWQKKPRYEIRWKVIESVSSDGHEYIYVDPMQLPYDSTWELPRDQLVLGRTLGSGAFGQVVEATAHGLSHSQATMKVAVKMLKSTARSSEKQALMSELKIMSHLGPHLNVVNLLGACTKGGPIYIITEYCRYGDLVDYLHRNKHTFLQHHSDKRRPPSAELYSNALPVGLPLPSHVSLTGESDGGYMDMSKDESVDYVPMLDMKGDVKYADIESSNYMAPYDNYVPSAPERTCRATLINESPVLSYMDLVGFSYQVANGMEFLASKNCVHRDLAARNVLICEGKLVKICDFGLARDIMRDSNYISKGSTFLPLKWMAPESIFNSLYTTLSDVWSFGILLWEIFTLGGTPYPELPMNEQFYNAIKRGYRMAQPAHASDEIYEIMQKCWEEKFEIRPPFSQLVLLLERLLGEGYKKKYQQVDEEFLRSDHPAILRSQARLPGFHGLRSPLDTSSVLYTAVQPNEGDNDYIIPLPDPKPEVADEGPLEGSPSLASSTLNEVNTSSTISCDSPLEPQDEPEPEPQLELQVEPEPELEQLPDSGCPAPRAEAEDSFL
CDK4/Cyclin D3, sequence (P11802 whole entry, the tested form may be a part): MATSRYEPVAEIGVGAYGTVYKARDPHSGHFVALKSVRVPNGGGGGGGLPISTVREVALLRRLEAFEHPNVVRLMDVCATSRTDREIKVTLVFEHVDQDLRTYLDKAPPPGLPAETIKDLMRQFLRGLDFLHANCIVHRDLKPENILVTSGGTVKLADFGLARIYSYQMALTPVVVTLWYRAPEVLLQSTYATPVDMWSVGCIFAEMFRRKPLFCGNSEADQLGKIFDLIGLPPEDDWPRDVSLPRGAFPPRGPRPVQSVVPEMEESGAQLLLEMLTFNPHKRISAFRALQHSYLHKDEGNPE
CDK4/Cyclin D3, sequence (P30281 whole entry, further chain, the tested form may be a part): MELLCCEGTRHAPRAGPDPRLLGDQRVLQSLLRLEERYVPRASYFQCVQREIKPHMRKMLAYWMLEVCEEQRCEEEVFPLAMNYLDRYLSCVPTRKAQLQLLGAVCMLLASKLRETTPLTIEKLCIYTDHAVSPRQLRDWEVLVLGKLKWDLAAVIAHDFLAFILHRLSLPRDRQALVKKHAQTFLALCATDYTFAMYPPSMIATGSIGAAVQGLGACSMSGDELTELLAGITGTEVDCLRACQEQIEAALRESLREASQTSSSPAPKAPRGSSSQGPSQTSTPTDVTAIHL
Hepatocyte growth factor receptor, sequence (P08581 whole entry): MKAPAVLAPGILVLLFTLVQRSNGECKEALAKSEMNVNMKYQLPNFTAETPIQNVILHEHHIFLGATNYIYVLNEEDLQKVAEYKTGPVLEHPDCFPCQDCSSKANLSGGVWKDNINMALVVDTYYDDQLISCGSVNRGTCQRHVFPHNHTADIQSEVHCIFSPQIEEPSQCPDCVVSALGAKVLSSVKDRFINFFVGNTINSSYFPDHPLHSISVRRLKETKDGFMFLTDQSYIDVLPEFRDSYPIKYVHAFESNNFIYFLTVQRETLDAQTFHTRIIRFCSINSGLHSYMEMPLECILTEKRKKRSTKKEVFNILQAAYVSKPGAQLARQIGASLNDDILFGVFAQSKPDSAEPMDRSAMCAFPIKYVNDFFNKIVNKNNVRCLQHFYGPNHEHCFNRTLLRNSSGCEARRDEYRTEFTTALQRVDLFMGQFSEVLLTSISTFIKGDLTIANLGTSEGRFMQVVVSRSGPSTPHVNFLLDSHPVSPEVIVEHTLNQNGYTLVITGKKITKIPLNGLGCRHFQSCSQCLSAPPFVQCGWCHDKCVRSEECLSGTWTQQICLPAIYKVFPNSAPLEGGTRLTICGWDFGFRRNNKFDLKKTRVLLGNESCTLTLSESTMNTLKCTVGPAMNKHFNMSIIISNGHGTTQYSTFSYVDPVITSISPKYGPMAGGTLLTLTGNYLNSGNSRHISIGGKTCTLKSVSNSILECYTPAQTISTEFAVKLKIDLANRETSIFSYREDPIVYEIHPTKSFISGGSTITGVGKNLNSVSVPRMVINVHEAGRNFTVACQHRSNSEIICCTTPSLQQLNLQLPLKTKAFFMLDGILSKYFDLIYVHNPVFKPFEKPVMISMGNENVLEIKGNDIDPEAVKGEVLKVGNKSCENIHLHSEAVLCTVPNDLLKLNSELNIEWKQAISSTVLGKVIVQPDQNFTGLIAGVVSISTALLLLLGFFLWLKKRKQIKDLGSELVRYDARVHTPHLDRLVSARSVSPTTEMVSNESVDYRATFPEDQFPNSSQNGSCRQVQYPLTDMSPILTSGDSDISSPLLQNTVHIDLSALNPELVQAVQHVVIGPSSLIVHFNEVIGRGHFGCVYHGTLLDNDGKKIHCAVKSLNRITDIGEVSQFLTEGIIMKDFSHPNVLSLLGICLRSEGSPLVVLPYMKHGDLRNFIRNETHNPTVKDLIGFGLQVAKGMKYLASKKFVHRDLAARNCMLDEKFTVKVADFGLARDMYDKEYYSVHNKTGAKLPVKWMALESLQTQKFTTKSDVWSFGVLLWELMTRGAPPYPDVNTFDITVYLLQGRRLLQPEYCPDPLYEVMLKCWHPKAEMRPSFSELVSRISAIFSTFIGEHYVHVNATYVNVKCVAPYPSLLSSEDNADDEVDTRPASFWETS

In the case of `CC(C)n1cc(C(=O)Nc2ccc(Oc3ccnc(NC(=O)C4CC4)c3)c(F)c2)c(=O)n(-c2ccc(F)cc2)c1=O`, the IC50 [1] is reported as > 1 µM, the inhibition [2] is reported as “Active” and the inhibition in vivo at 5 mg/kg (U-87 MG) is reported as 62.3%. For the same molecule, the inhibition [3] was “Active”, the IC50 (Focal adhesion kinase 1) was > 1 µM and the IC50 (HT-29) was > 10 µM. For the same molecule, the IC50 (CDK2/Cyclin A2) was > 1 µM, the IC50 [4] was > 1 µM and the IC50 [5] was > 1 µM. For the same molecule, the IC50 [6] was > 1 µM, the IC50 [7] was > 1 µM and the IC50 (CDK4/Cyclin D3) was > 1 µM. For the same molecule, the IC50 [8] was > 1 µM, the IC50 (MDA-MB-231) was > 10 µM and the IC50 (EBC-1) was 0.064 µM. The inhibition [9] was “Dose-Dependent Effect”, the half-life [10] was 5.2 h and the IC50 [11] was > 1 µM. For the same molecule, the half-life [12] was 13.8 h, the inhibition in vivo at 1 mg/kg (BaF3) was 90.9% and the AUC(0-t) at 24 h [13] was 24000 ng·h/mL. For the same molecule, the IC50 [14] was > 1 µM.
